Measurements taken from paper PMC11645656, “MRGPRX4 mediates phospho-drug associated pruritus in a humanized mouse model” (Science translational medicine, 2024).
Values joined by “and” are separate entries in the source; they are usually repeats but may differ in a detail not shown here. Equal entries are not always repeated.

What was measured:
[1] = biological target: T1, MRGPRX4 Y254A (Homo sapiens, UniProt Q96LA9, L83S/Y254A); assay: Calcium mobilization assay (FLIPR), MRGPRX4 Y254A mutant; format: cell-based; details: for Calcium mobilization response, dose-response replicate data (Fig. 3E and 3F): Y254A
T1 construct: expressed in transfected cells; host or cells: HEK293T, transient
T1 sequence (Q96LA9 whole entry L83S/Y254A): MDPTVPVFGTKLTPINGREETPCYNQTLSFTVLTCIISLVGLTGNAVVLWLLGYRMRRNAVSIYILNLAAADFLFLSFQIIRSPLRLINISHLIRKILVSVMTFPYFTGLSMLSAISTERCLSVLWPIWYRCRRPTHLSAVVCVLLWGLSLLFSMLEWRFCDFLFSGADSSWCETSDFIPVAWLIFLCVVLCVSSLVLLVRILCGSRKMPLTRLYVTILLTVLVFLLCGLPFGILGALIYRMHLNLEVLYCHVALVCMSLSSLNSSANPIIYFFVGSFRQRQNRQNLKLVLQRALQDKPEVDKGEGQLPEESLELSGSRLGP
Excerpt: (§1) Fig. 3. […] (A) Cryo-EM density map of MRGPRX4-Gq in complex with fospropofol. (B) The density map of fospropofol and R82 of MRGPRX4. (C and D) Key molecular interactions between fospropofol and the hydrophilic (C) and hydrophobic (D) part of the agonist binding pocket of MRGPRX4. Amino acid residues interacting with fospropofol are shown as sticks. Hydrogen bond is shown as cyan dashed lines. […] Data are from at least three independent experiments, each performed in triplicate, and reported as the mean ± SEM. (E) and (F) were collected from the same sets of experiments.
To generate murine Mrgprs expressing cells, HEK293T cells (ATCC) were seeded on poly-D-lysine coated 96 well plate at 25,000 cells per well one day prior to transfection. HEK293T cells were transiently co-transfected with the mammalian expression plasmids carrying cDNA encoding the murine Mrgpr genes and plasmid inserted with cDNA encoding murine α-subunit of the heterotrimeric G15 protein (Gα15) in triplicates using Lipofectamine LTX reagents (Thermo Scientific). To generate WT, S83L, and alanine mutant MRGPRX4-expressing cells, HEK293T cells were seeded on poly-D-lysine coated 384 well plate at 12,000 cells per well one day prior to transfection. Mammalian expression plasmids pLX304 (vector from Addgene) carrying different MRGPRX4 coding sequences were transiently transfected into HEK293T cells in triplicates with Lipofectamine LTX reagents (Thermo Scientific). Intracellular calcium mobilization assays were performed after one day of transfection. Murine Mrgprs tested include Mrgpra1, Mrgpra2a, Mrgpra2b, Mrgpra3, Mrgpra4, Mrgpra6, Mrgpra9, Mrgpra10, Mrgpra11, Mrgpra12, Mrgpra14, Mrgprb5, Mrgprb6, Mrgprb10, Mrgprb11, and Mrgprc11. WT and mutant MRGPRX4 constructs tested include WT, S83L, R82A, R86A, R95A, W158A, Y250A, and Y254A.
To generate MRGPRX4 mutant constructs, site-directed mutagenesis was performed using Q5® Site-Directed Mutagenesis Kit (New England Biolabs). The primers were designed by the NEBaseChanger tool, with forward primers spanning designated mutated sequence corresponding to the desired amino acid substitutions. The plasmids with WT MRGPRX4 sequence served as the templates for polymerase chain reaction (PCR) amplification with Q5 high-fidelity polymerase and respective primer pairs according to the manufacturer’s conditions. Then, the linear PCR products underwent phosphorylation, ligation, and simultaneous degradation of template DNA by incubating them with a KLD enzyme mix consisting of T4 polynucleotide kinase, T4 DNA ligase, and DpnI at room temperature for 5 min. Subsequently, the mutated circular plasmids were transformed into NEB 5-alpha competent E. coli by heat-shock method, and the successfully transformed bacteria were selected on LB plates with selection antibiotics. The next day, the transformant colonies were picked, expanded in LB broth containing selection antibiotics overnight. Plasmids were isolated using QIAprep Spin Miniprep Kit (Qiagen) and subjected to sequencing to confirm the mutation.

[2] = biological target: T2, MRGPRX4 R86A (Homo sapiens, UniProt Q96LA9, L83S/R86A); assay: Calcium mobilization assay (FLIPR), MRGPRX4 R86A mutant; format: cell-based
T2 construct: expressed in transfected cells; host or cells: HEK293T, transient
T2 sequence (Q96LA9 whole entry L83S/R86A): as the sequence (Q96LA9 whole entry L83S/Y254A) above, with R86A, A254Y counted along it
Excerpt: as §1
(§2) To generate murine Mrgprs expressing cells, HEK293T cells (ATCC) were seeded on poly-D-lysine coated 96 well plate at 25,000 cells per well one day prior to transfection. HEK293T cells were transiently co-transfected with the mammalian expression plasmids carrying cDNA encoding the murine Mrgpr genes and plasmid inserted with cDNA encoding murine α-subunit of the heterotrimeric G15 protein (Gα15) in triplicates using Lipofectamine LTX reagents (Thermo Scientific). To generate WT, S83L, and alanine mutant MRGPRX4-expressing cells, HEK293T cells were seeded on poly-D-lysine coated 384 well plate at 12,000 cells per well one day prior to transfection. […]

[3] = tested on: NP2-X4+ DRG neurons; assay: GCaMP6s calcium imaging of cultured NP2-X4+ DRG neurons; format: cell-based, mouse; details: 10 μM phospho-drugs; 1 mM CQ
Excerpt: Fig. 2. Phosphate monoester prodrugs induce itch in NP2-MRGPRX4+ mice through activating NP2 primary sensory neurons. (A) Mating strategy to generate NP2-X4+ mice. (B) In situ hybridization showing MRGPRX4 transcripts (magenta) in NP2-X4+ DRG as indicated by arrowheads (left) but not in littermate control NP2-WT (right). NP2 subpopulation accounts for 5% of total DRG neurons. DAPI, blue. Scale bar, 50 μm. […]. Data are expressed as mean ± SEM. *p< 0.05, **p< 0.01 and ***p< 0.001 by two-tailed unpaired Student’s t-test. ns = no statistical significance observed. (D and E) Traces of average (top, depicted as mean ± 95% confidence interval) and individual (bottom, reflected by the heatmap) calcium activity, measured by fluorescence intensity normalized to the baseline intensity (FT/F0) over time of NP2-X4+ (D) and NP2-WT (E) DRG neurons labelled with GCaMP6s (n = 110–150 neurons pooled from 3–7 independent culture vessels from 2–4 mice in each condition). 10 μM phospho-drugs and 1 mM CQ were added as indicated by the arrowheads. Neurons with FT/F0 > 1.5 after compound application were considered a positive responder. NP2-X4+: NP2-MRGPRX4+; DRG, dorsal root ganglia; CQ: chloroquine.
The procedures were performed following previously established protocols ([15]). Murine DRGs (from both male and female) were harvested from all spinal segments and digested in dispase (5 mg/ml) / type I collagenase (1 mg/ml) enzyme mix at 37 °C for an hour. Enzyme mix was replaced with complete DH10 media (90% DMEM/F12, 10% FBS, penicillin (100 units/ml), and streptomycin (100 μg/ml)) and gently triturated with 1 ml pipette tip until the media turned cloudy without visible tissue chunks. Dissociated tissues were filtered through a 70 μm filter and spun down 1250 rpm for 5 min at RT. Supernatant was removed and the cell pellet was resuspended in complete DH10 media. Cell suspension was then added on top of poly-D-lysine- and laminin-coated coverslips and sat for 1–2 h at 37°C. Complete DH10 media supplemented with NGF (50 ng/ml) was then added into the vessel. Neurons were allowed to recover overnight at 37°C for the next-day calcium imaging experiment.
Calcium imaging data was collected with a Nikon Eclipse TE 200 microscope. Time series GCaMP6 fluorescence intensity was acquired through the FITC/GFP channel. Before the imaging, cultured neurons were washed and equilibrated in CIB for 30 min at 37°C. In each trial, compounds (as indicated in the results) were added into the imaging chamber after a 30 s baseline GCaMP6 activity was collected. […] Neurons with GCaMP6 signal rose above 50% of the baseline intensity after compound application were counted as positive responders and the percentage of responding neurons was calculated. […]

[4] = biological target: T3, MRGPRX4 R95A (Homo sapiens, UniProt Q96LA9, L83S/R95A); assay: Calcium mobilization assay (FLIPR), MRGPRX4 R95A mutant; format: cell-based
T3 construct: expressed in transfected cells; host or cells: HEK293T, transient
T3 sequence (Q96LA9 whole entry L83S/R95A): as the sequence (Q96LA9 whole entry L83S/Y254A) above, with R95A, A254Y counted along it
Excerpt: as §1, §2

[5] = biological target: T4, MRGPRX4 Y250A (Homo sapiens, UniProt Q96LA9, L83S/Y250A); assay: Calcium mobilization assay (FLIPR), MRGPRX4 Y250A mutant; format: cell-based
T4 construct: expressed in transfected cells; host or cells: HEK293T, transient
T4 sequence (Q96LA9 whole entry L83S/Y250A): as the sequence (Q96LA9 whole entry L83S/Y254A) above, with Y250A, A254Y counted along it
Excerpt: as §1, §2

[6] = tested on: WT mice; assay: Itch behavioral study in WT mice across concentrations (fig. S4)
Method: Experimenters and subjects scoring the recorded videos were both blind to the mouse genotype and tested compounds. Behavioral tests comparing NP2-WT and NP2-X4+ scratching behavior were 6–12weeks old littermates including both genders. In brief, on the day preceding the experiment, animals were acclimated to the test chamber for at least 30 min and the experimenters performed mock injections 1–2 times in between. On the day of experiments, animals were habituated in test chambers for 10 min before receiving subcutaneous injection of 50ul compounds. Videos were recorded for 30 min after the injection. A bout of scratching was defined as a sustained scratching movement initiated by hindpaws toward the injection site (until the pause of the movement / withdrawal of the hindpaw). Scratching bouts were quantified within the 30 min record sessions.

[7] = 1 mM subcutaneous nape injection
[8] = 10 mM subcutaneous nape injection

Compound | Calcium mobilization response at alanine mutant Y254A vs WT [1] | Calcium mobilization response, dose-response replicate data (Fig. 3E and 3F) ([1]; concentration 188 pM) | Calcium mobilization response, dose-response replicate data (Fig. 3E and 3F) ([1]; concentration 565 pM) | Calcium mobilization response, dose-response replicate data (Fig. 3E and 3F) ([1]; concentration 1.69e-9 M) | Calcium mobilization response, dose-response replicate data (Fig. 3E and 3F) ([1]; concentration 5.08e-9 M) | Calcium mobilization response, dose-response replicate data (Fig. 3E and 3F) ([1]; concentration 1.52e-8 M) | Calcium mobilization response, dose-response replicate data (Fig. 3E and 3F) ([1]; concentration 4.57e-8 M) | Calcium mobilization response, dose-response replicate data (Fig. 3E and 3F) ([1]; concentration 1.37e-7 M) | Calcium mobilization response, dose-response replicate data (Fig. 3E and 3F) ([1]; concentration 4.12e-7 M) | Calcium mobilization response, dose-response replicate data (Fig. 3E and 3F) ([1]; concentration 1.23e-6 M) | Calcium mobilization response, dose-response replicate data (Fig. 3E and 3F) ([1]; concentration 3.7e-6 M) | Calcium mobilization response, dose-response replicate data (Fig. 3E and 3F) ([1]; concentration 1.11e-5 M) | Calcium mobilization response, dose-response replicate data (Fig. 3E and 3F) ([1]; concentration 3.33e-5 M) | Calcium mobilization response, dose-response replicate data (Fig. 3E and 3F) ([1]; concentration 0.0001 M) | Calcium mobilization response at alanine mutant R86A vs WT [2] | Calcium response of NP2-X4+ neurons [3] | Calcium mobilization response at alanine mutant R95A vs WT [4] | Calcium mobilization response at alanine mutant Y250A vs WT [5] | Scratching bouts (each well represents individual mouse) [6, 7] | Scratching bouts (each well represents individual mouse) [6, 8]
O=C1NC(c2ccccc2)(c2ccccc2)C(=O)N1COP(=O)(O)O [Fosphenytoin] | disrupted calcium mobilization | 6.602 and -1.3205 and -9.574 and 20.2858 and 13.0936 and 9.774 and -0.7431 and 13.747 | 20.4677 and 20.7978 and 5.942 and 10.3273 and 0.3688 and 21.3924 and 9.2885 and 13.5241 | 15.8459 and 12.5447 and -5.6121 and 28.0313 and 20.8391 and 13.6468 and 20.2118 and 18.4284 | 23.7689 and 10.8941 and -0.3301 and 18.6261 and 10.3273 and 20.8391 and 13.5241 and 11.5177 | 15.8459 and 17.8267 and 10.564 and 26.3716 and 23.6054 and 16.9663 and 20.8805 and 19.7659 | 19.1472 and 14.8556 and 8.913 and 19.1793 and 12.5403 and 20.2858 and 17.7596 | 18.8171 and 31.3618 and 9.243 and 27.4781 and 26.9248 and 21.3924 and 19.3201 | 18.4869 and 19.4773 and 3.301 and 26.9248 and 12.5403 and 32.4573 and 12.4094 | 21.1279 and 18.1568 and 6.272 and 32.4573 and 21.9456 and 23.0521 and 14.8616 and 16.645 | 15.5158 and 10.2338 and 7.923 and 31.3509 and 13.0936 and 21.9456 and 13.9699 and 13.3011 | 7.923 and -1.651 and 1.651 and 24.1586 and 18.0728 and 21.9456 and 2.8237 and 17.9825 | 5.942 and 0.9904 and -9.904 and 16.4131 and 10.3273 and 31.3509 and 7.059 and 4.161 | 1.651 and -5.282 and 12.5403 and 18.0728 and 14.2001 and 2.601 and 7.951 | either greatly attenuated or abolished | strong calcium transients | either greatly attenuated or abolished | disrupted calcium mobilization | 0 (2×) and 16 (2×) and 11 and 26 | 3 and 4 and 1 and 0 and 26
CC(C)c1cccc(C(C)C)c1OCOP(=O)(O)O [Fospropofol] | disrupted calcium mobilization | – | – | – | – | – | – | – | – | – | – | – | – | – | either greatly attenuated or abolished | strong calcium transients | either greatly attenuated or abolished | disrupted calcium mobilization | 16 and 12 and 11 and 28 | 5 and 20 and 15 and 16
